In US11191820B2, “Method for inducing early T memory response with short peptides anti-tumor vaccine” (OSE IMMUNOTHERAPEUTICS, priority 2015, dated 2021):

Assays:
Type in all cases: in vivo, human
[1] = system: central memory T cells; experiment: Cultured IFN-γ ELISPOT after 10-day in vitro stimulation of PBMC, phase 1/2 NSCLC trial of OSE-2101; parameters: key to net SFC of vaccine positive CTL responses: —, indicates SFC response did not meet criteria and vaccine response was negative; conditions: for Mean SFC / No. Positive Responses: 6 NSCLC patients
Method: (§1) Clinical study design. Both trials were designed as phase 1/2, open label, multi-center, single dose, multiple administration studies to evaluate the safety and immunogenicity of the OSE-2101 immunotherapy. Patients were treated with 1 ml OSE-2101 every 3 weeks for a total of six doses. Each dose was administered subcutaneously in the same vicinity in the deltoid or upper thigh region, or at a contralateral site if local side-effects were observed. The study duration for each completed patient was 18 weeks. Clinical responses or patient survival were not measured in either phase 1/2 studies.
(§2) Clinical sample processing. Blood or leukapheresis product was obtained from patients at the pre-treatment, the Week 9 and Week 18 time points, 3 weeks after the third and sixth dose of OSE-2101 respectively. Peripheral blood mononuclear cells (PBMC) were isolated from samples within 24 hours of collection using a FICOLL-PAQUE density gradient and cryopreserved in containers designed to ensure optimal freezing (Mr. Frosty, Nalgene). For use, cells were rapidly thawed at 37° C. then transferred to human AB serum-containing medium for work-up.
(§3) Measurement of central T memory cells responses and T effector memory cells. The CTL responses in 16 total patients (10 colon and six NSCLC) were monitored for CTL responses against each epitope and against the wild-type epitope of epitopes analogs. For each patient, the pre-treatment, Week 9 and Week 18 time points were batch-tested in the same experiment to allow pre- versus post-treatment response comparison in the same experiment. Central T memory cells responses were measured using an IFN-γ enzyme-linked immunospot (cultured ELISPOT) assay following in vitro stimulation of PBMC for 10 days with each vaccine epitope. Briefly, PBMC from each time point were stimulated on day 0 with 10 μg/ml of each epitope individually in replicate in 48-well culture plates (2×10^6 PBMC/well). All cultures were fed with rIL-2 (Endogen, Woburn, Mass.; 10 U/ml final concentration) on days 1, 4 and 7. Ten days after initiation of culture, cells were harvested and tested for activity against specific vaccine peptides and corresponding wild-type peptides of vaccine analogs in the T memory ELISPOT assay. Cells were tested in Millipore IP 96-well plates pre-coated with mouse anti-human IFN-γ antibody (Mabtech USA, Cincinnati, Ohio). Five×10^4 cells and 1.25×10^4 cells from each culture were plated in triplicate wells together with 10^5 irradiated autologous PBMC and 10 μg/ml peptide. As a control, CTL were also tested against an irrelevant HLA-A2.1-binding HBV peptide. After 20 hours incubation, T memory ELISPOT plates were developed by performing sequential incubations with biotinylated anti-human IFN-γ antibody (Mabtech USA), Avidin-Peroxidase Complex (APC, Vector Laboratories, Burlingame, Calif.), and 3-amino-9-ethyl carbazole (AEC) substrate (Sigma Aldrich, St. Louis, Mo.). Spot-forming cells (SFC) were enumerated using a computer-assisted image analysis system (Zeiss KS ELISPOT Reader, Carl Zeiss MicroImaging, Thornwood, N.J.). Data is reported as the net SFC per 5×10^4 cells after subtracting spots induced with the irrelevant HBV peptide.

[2] = system: central memory T cells; experiment: Cultured IFN-γ ELISPOT after 10-day in vitro stimulation of PBMC, phase 1/2 colon cancer trial of OSE-2101; parameters: key to net SFC of vaccine positive CTL responses: —, indicates SFC response did not meet criteria and vaccine response was negative; conditions: for Mean SFC: 10 colon patients
Method: as §1, §2, §3

[3] = system: central memory T cells; experiment: Central memory T cell cultured ELISPOT, phase 2 trial in advanced NSCLC
Method: CTL Immune responses measured though cultured Elispot. The immunogenicity was measured in Phase 2 clinical trial on cryopreserved PBMC from each test sample were thawed in 5% human culture medium (RPMI-1640 medium with 25 mM HEPES, supplemented with 5% human AB serum, 4 mM L-glutamine, 0.5 mM sodium pyruvate, 0.1 mM MEM non-essential amino acids, 100 μg/ml streptomycin, and 100 U/ml penicillin) containing 30 μg/ml DNAase. After centrifugation for 5 minutes at 1200 rpm, the cell pellets were resuspended in 5% human culture medium and washed 2 times. For the central Memory T cell cultured ELISPOT assay, 2×10^6/ml PBMC were placed in replicate wells in a 48-well plates and stimulated for 10 days with 10 μg/ml of each peptide. As a positive control, PBMC were also stimulated with a pool of recall viral peptides. Human rIL2 (10 U/ml) was added to the peptide-stimulated cultures at day 1, day 4 and day 7. After 10 days the stimulated cells were harvested and plated at a concentration of 5×10^4/well. Assay wells also received irradiated autologous PBMC (1×10^5/well) and 10 μg/ml peptide, either the vaccine peptide, irrelevant peptide or positive control peptides. Cells stimulated in vitro with each analog epitope were also tested against the corresponding wild-type epitope.
Data analysis and acceptance criteria. Mean and standard deviation (SD) of spots in replicate wells were calculated in all assays by transferring raw ELISPOT data from each experiment to an Excel-based computer program. Positive vaccine-induced T-cell responses were determined according to the criteria described below.
Acceptance Criteria for peptide-Induced specific T-cell response through central memory T cells: The positive criteria for CTL responses used in the phase 2 trial was identical to the criteria in the phase 1/2 trials which was established prospectively after analyzing the variability of pre-treatment responses in patients against each vaccine epitope and the irrelevant HBV control epitope. A positive peptide-induced CTL/T memory response to a given epitope met all of the following conditions: 1) was greater than 5 SFC above the irrelevant epitope response, 2) was greater than the mean SFC of the irrelevant epitope response, plus 2 SD, and 3) was two-fold greater than the SFC response in the pre-vaccination sample from the same patient, plus 2 SD. The inclusion of “plus two standard deviations” was used to accommodate the assay variability and served to increase the criteria stringency.

Sequence: KVFGSLAFV [HER2.369L2V9 A]
- Mean SFC ([1]; Week 9): 84.3 SFC per 50,000 cells
- No. Positive Responses ([1]; Week 9): 1
- Mean SFC ([1]; Week 18): 109.3 SFC per 50,000 cells
- No. Positive Responses ([1]; Week 18): 4
- net SFC of vaccine positive CTL responses ([1]; NSCLC patient 201, Week 9): —
- net SFC of vaccine positive CTL responses ([1]; NSCLC patient 201, Week 18): —
- net SFC of vaccine positive CTL responses ([1]; NSCLC patient 502, Week 9): —
- net SFC of vaccine positive CTL responses ([1]; NSCLC patient 502, Week 18): —
- net SFC of vaccine positive CTL responses ([1]; NSCLC patient 504, Week 9): 84.3 SFC per 50,000 cells
- net SFC of vaccine positive CTL responses ([1]; NSCLC patient 504, Week 18): 284.0 SFC per 50,000 cells
- net SFC of vaccine positive CTL responses ([1]; NSCLC patient 505, Week 9): —
- net SFC of vaccine positive CTL responses ([1]; NSCLC patient 505, Week 18): 53.0 SFC per 50,000 cells
- net SFC of vaccine positive CTL responses ([1]; NSCLC patient 532, Week 9): —
- net SFC of vaccine positive CTL responses ([1]; NSCLC patient 532, Week 18): 78.3 SFC per 50,000 cells
- net SFC of vaccine positive CTL responses ([1]; NSCLC patient 651, Week 9): —
- net SFC of vaccine positive CTL responses ([1]; NSCLC patient 651, Week 18): 22.0 SFC per 50,000 cells
- Mean SFC ([2]; Week 9): 120.8 SFC per 50,000 cells
- Mean SFC ([2]; Week 18): 315.7 SFC per 50,000 cells
- net SFC of vaccine positive CTL responses ([2]; colon patient 551, Week 9): 134.7 SFC per 50,000 cells
- net SFC of vaccine positive CTL responses ([2]; colon patient 551, Week 18): 80.7 SFC per 50,000 cells
- net SFC of vaccine positive CTL responses ([2]; colon patient 601, Week 9): 112.7 SFC per 50,000 cells
- net SFC of vaccine positive CTL responses ([2]; colon patient 601, Week 18): 52.3 SFC per 50,000 cells
- net SFC of vaccine positive CTL responses ([2]; colon patient 602, Week 9): —
- net SFC of vaccine positive CTL responses ([2]; colon patient 602, Week 18): —
- net SFC of vaccine positive CTL responses ([2]; colon patient 603, Week 9): 30.0 SFC per 50,000 cells
- net SFC of vaccine positive CTL responses ([2]; colon patient 603, Week 18): —
- net SFC of vaccine positive CTL responses ([2]; colon patient 604, Week 9): 88.3 SFC per 50,000 cells
- net SFC of vaccine positive CTL responses ([2]; colon patient 604, Week 18): 314.7 SFC per 50,000 cells
- net SFC of vaccine positive CTL responses ([2]; colon patient 605, Week 9): 32.7 SFC per 50,000 cells
- net SFC of vaccine positive CTL responses ([2]; colon patient 605, Week 18): 33.7 SFC per 50,000 cells
- net SFC of vaccine positive CTL responses ([2]; colon patient 606, Week 9): —
- net SFC of vaccine positive CTL responses ([2]; colon patient 606, Week 18): 71.0 SFC per 50,000 cells
- net SFC of vaccine positive CTL responses ([2]; colon patient 607, Week 9): 389.3 SFC per 50,000 cells
- net SFC of vaccine positive CTL responses ([2]; colon patient 607, Week 18): 1642.7 SFC per 50,000 cells
- net SFC of vaccine positive CTL responses ([2]; colon patient 608, Week 9): —
- net SFC of vaccine positive CTL responses ([2]; colon patient 608, Week 18): —
- net SFC of vaccine positive CTL responses ([2]; colon patient 609, Week 9): 58.0 SFC per 50,000 cells
- net SFC of vaccine positive CTL responses ([2]; colon patient 609, Week 18): 14.7 SFC per 50,000 cells
- % of patients with positive CTL/central memory T cell response ([3]; phase 2, month 9): 29%
- patients with positive CTL/central memory T cell response / patients tested ([3]; phase 2, month 9): 2/7
- % of patients with positive CTL/central memory T cell response ([3]; phase 2, month 12): 50%
- patients with positive CTL/central memory T cell response / patients tested ([3]; phase 2, month 12): 2/4
- % of patients with positive CTL/central memory T cell response ([3]; phase 2, week 9): 42%
- patients with positive CTL/central memory T cell response / patients tested ([3]; phase 2, week 9): 14/33
- % of patients with positive CTL/central memory T cell response ([3]; phase 2, week 18): 44%
- patients with positive CTL/central memory T cell response / patients tested ([3]; phase 2, week 18): 14/32
- % of patients with positive CTL/central memory T cell response ([3]; phase 2, week 30): 57%
- patients with positive CTL/central memory T cell response / patients tested ([3]; phase 2, week 30): 13/23

Sequence: RLLQETELV [HER2-689-WT]
- % of patients with positive CTL/central memory T cell response ([3]; phase 2, month 9): 0%
- patients with positive CTL/central memory T cell response / patients tested ([3]; phase 2, month 9): 0/7
- % of patients with positive CTL/central memory T cell response ([3]; phase 2, month 12): 0%
- patients with positive CTL/central memory T cell response / patients tested ([3]; phase 2, month 12): 0/4
- % of patients with positive CTL/central memory T cell response ([3]; phase 2, week 9): 36%
- patients with positive CTL/central memory T cell response / patients tested ([3]; phase 2, week 9): 4/11
- % of patients with positive CTL/central memory T cell response ([3]; phase 2, week 18): 27%
- patients with positive CTL/central memory T cell response / patients tested ([3]; phase 2, week 18): 3/11
- % of patients with positive CTL/central memory T cell response ([3]; phase 2, week 30): 0%
- patients with positive CTL/central memory T cell response / patients tested ([3]; phase 2, week 30): 0/6
